Results on one compound are retold here after paper PMC6930570, “2-Arylidene-1-indandiones as Pleiotropic Agents with Antioxidant and Inhibitory Enzymes Activities” (Molecules, 2019).

Experiment [1] can be described thus: Reducing activity of the stable radical DPPH. In kind it is biochemical. As to the method:
The novel derivatives were studied for their interaction with the sTable 2,2-diphenyl-1-picrylhydrazyl free radical (DPPH)at concentration 50 µM, 100 µM and 200 µM after 20 and 60 min (Table 2). In this assay the DPPH radical is reduced transferring one electron from the antioxidant. Phenolic compounds such as catechol and derivatives generate phenoxide anions with strong antioxidant capacity. Nordihydroguaretic acid (NDGA), the reference compound acts by this mechanism. Compound 10 presents the highest scavenging activity at 100 µM after 20 min correlated with the presence of the phenolic OH. Compounds 3, 4, 5, 7 presented medium activities depending from time and concentration. The presence of the heteroatom O or S seems to influence the activity e.g., derivatives 1, 2, and 3. Replacement of phenyl ring (4) by a thienyl group (1) decreases antioxidant behavior. […] On the contrary the presence of the furyl ring (3) enhances reduction. Additionally, the presence of a π-dimethyl-amino group 6 reduces the scavenging ability whereas its absence in (5), increases the activity. The presence of two conjugated double bonds (5) leads to lower activity compared to the simpler compound 4. Compounds 9 and 10 present the highest milogP values (5.94). Both include a phenolic hydrogen in their structure. […] On the contrary in compound 9 steric reasons are possible to lead to a decrease. Lipophilicity seems to influence the interaction of compound 10.
To a solution of DPPH in absolute ethanol an equal volume of the compounds with final concentrations of 50, 100 and 200 µM from a stock solution of 10 mM (in 1% DMSO and ethanol) was added. After 20 and 60 min the absorbance was recorded at 517 nm at room temperature (Table 2).

The next experiment addresses T1, bovine thrombin (Bos taurus, UniProt P00735).
T1 construct: purchased Sigma Chemical, Co. (St. Louis)
The experiment is described as follows: In vitro inhibition of thrombin. In kind it is biochemical. The settings on record: substrate tosyl-Gly-Pro-Arg-pNA, no = no action under the experimental conditions. Here is the method: It is well known that indandione derivatives exert their anticoagulant activity indirectly by inhibiting prothrombin synthesis in the liver. […] Derivatives 1, 2, 5, 8, 9, 10, and 12 were tested in vitro as possible thrombin inhibitors. Among the tested derivatives compound 8 presented 100% inhibition followed by compounds […] and 10.
As a substrate tosyl-Gly-Pro-Arg-pNA acetate salt was used at 1 mM final concentration. Compounds were dissolved at a final concentration of […] in a Tris-buffer (0.05 M Tris, 0.154 M NaCl, ethanol 5%, pH = 8.0). Three minutes after the addition of bovine thrombin (2.5 unit/mg), the reaction was ended by adding 1 mL acetic acid 50%. The absorption of the released p-nitro-aniline was measured at 405 nm (Table 3). Warfarin and Inogatran were used as reference compounds.

The subject of experiment [2] is carrageenin-induced rat paw edema. The experiment is described as follows: Inhibition of the carrageenin-induced rat paw edema (CPE). The format is in vivo, Fisher 344 rats. The settings on record: Rattus norvegicus, ip; 0.01 mmol/kg body weight, intraperitoneally, 3.5 h after carrageenin; read-out: CPE % (reduction of the rat paw edema). From the text:
Carrageenin-induced rat paw edema (CPE) model was used to study the in vivo anti-inflammatory activity of the tested derivatives and the results are presented in Table 3. […] Compounds 2, 7, 8, 10, and 12 presented small differences in their biological activity. The presence of the thienyl group as well as of the furyl leads to higher anti-inflammatory activity (1 and 3) while substitution with a phenyl group leads to two-fold decrease of the activity (28%).
Edema was induced in the right hind paw of Fisher 344 rats (150–200 g) by the intradermal injection of 0.1 mL 2% carrageenin in water. Both sexes were used while females pregnant were excluded. Each group was composed of 6–15 animals. The animals, which have been bred in our laboratory, were housed under standard conditions and received a diet of commercial food pellets and water ad libitum during the maintenance but they were entirely fasted during the experiment period. Our studies were in accordance with recognised guidelines on animal experimentation. (guidelines for the care and use of laboratory animals published by the Greek Government 160/1991, based on EU regulations 86/609). Rats were kept in the Centre of the School of Veterinary Medicine (EL54 BIO42), Aristotle University of Thessaloniki, which is registered by the official state veterinary authorities (presidential degree 56/2013, in harmonization with the European Directive 2010/63/EEC). The experimental protocols were approved by the Animal Ethics Committee of the Prefecture of Central Macedonia (no. 270079/2500). The tested compounds 0.01 mmol/kg body weight were suspended in water, with a few drops of Tween 80 and ground in a mortar before use and were given intraperitoneally simultaneously with the carrageenin injection. The rats were euthanized 3.5 h after carrageenin injection. The difference between the weight of the injected and uninjected paws was calculated for each animal. The change in paw weight was compared with that in control animals (treated with water) and expressed as a percent inhibition of the edema CPE % values […] [58, 59]. Indomethacin in 0.01 mmol/kg (47%). Values CPE % are the mean from two different experiments with a standard error of the mean less than 10% (Table 3).

A short description of experiment [3]: Inhibition of linoleic acid peroxidation induced by AAPH. The format is biochemical. The settings on record: no = no action under the experimental conditions. From the text: In the water soluble 2,2′-azobis(2-amidinopropane) hydrochloride (AAPH) the free radicals are produced in vitro through spontaneous thermal decomposition resembling to lipid peroxidation in cells due to the action of the peroxyl radicals. […] Compounds 11, 5, 4 and 3 presented no activity under the experimental conditions. From the experimental results it can be concluded that the 3,5-di-tert-butyl-group offers protection against lipid peroxidation. Electronic parameters expressed by the highest occupied molecular orbital (HOMO) describes better the biological activity (Equation (2)). log AAPH % = −22.042(± 8.731) HOMO − 4.853 (2.622)(2) n = 8, r = 0.930, r^2 = 0.864, q^2 = 0.567, s = 0.146, F1,8 = 5.783, α = 0.1
The oxidation reaction was started with 2,2′-Azobis(2-amidinopropane) dihydrochloride (AAPH) as a free radical initiator. Linoleic acid sodium salt was oxidized at 234 nm to a conjugated diene hydroperoxide resulting an increased absorption. Trolox was used as reference compound (93%) (Table 3).

Experiment [4] in a line: ABTS+. decolorization assay. The following applies: 1 min, no = no action under the experimental conditions. In kind it is biochemical. From the text:
The radical cation ABTS^+• is directly generated through potassium persulfate by oxidation with no participation of an intermediary radical and then the reduction is followed by adding electron-donating antioxidants. In this assay the radical is generated before adding the antioxidant (decolorization assay). […] It seems that lipophilicity influences the activity, since both are presenting high lipophilicity values. […] The radical cation ABTS^+• was generated from an ABTS stock solution in water (7 mM) which was mixed with potassium persulfate (2.45 mM) and left in the dark at room temperature for 12–16 h before use. The results are recorded after 1min of the mixing solutions at 734 nm and compared to the appropriate standard inhibitor Trolox (Table 3).

In the case of `O=C1C(=Cc2ccccc2)C(=O)c2ccccc21` [Compound 4, 2-benzylidene-1H-indene-1,3(2H)-dione], the “RA% 50 µM 20 min” value in experiment [1] (50 µM, 20 min) was 5%. Moreover, the “RA% 50 µM 60 min” value in experiment [1] (50 µM, 60 min) came out at 10%. In addition, the “RA% 100 µM 20 min” value in experiment [1] (100 µM, 20 min) is 26%. The “RA% 100 µM 60 min” value in experiment [1] (100 µM, 60 min) was determined as 32%. Also, the “RA% 200 µM 20 min” value in experiment [1] (200 µM, 20 min) stood at 23%. Further, in experiment [1] (200 µM, 60 min), the “RA% 200 µM 60 min” value worked out at 32%. Moreover, at bovine thrombin, the “TH% 100 µM (thrombin inhibition)” value is recorded as “no”. Moreover, the inhibition in vivo at 10 µmol/kg in experiment [2] worked out at 28%. Also, the “AAPH% 100 µM (anti-lipid peroxidation)” value in experiment [3] was “no activity and no”. In experiment [4], the “ABTS+. % 100 µM (decolorization activity)” value came out at 19%.
